Reference: US9433622B2, “Pyrimidine compounds useful in the treatment of diseases mediated by IKKE and/or TBK1 mechanisms” (DOMAINEX LIMITED, priority 2013, dated 2016)

Assays:
IKKε = IKKε (Homo sapiens (Human), UniProt Q14164); experiment: Lanthascreen TR-FRET kinase inhibition assay, IKKε; type: biochemical; conditions: 20 μM ATP (apparent Km), 2 nM kinase, 1 h
Procedure: (§1) Compounds of the invention (synthesised as described below) were tested for activity against the IKKε and TBK-1 enzyme as follows:
(§2) Inhibitions studies were performed using a time-resolved fluorescence-based Lanthascreen™ assay. Phosphorylation of a fluorescein-labelled substrate peptide is measured using terbium-labeled phosphospecific antibodies.
(§3) Kinase inhibition assays (10 μL) were performed at 20° C. in 384-well plate format. […] The final reaction conditions contained 400 nM fluorescein-IkBα substrate ([…]), 20 μM ATP, 2 nM or 8 nM IKKε or TBK1 kinase respectively, and 3% DMSO in kinase assay buffer consisting of 50 mM HEPES (pH 7.5), 10 mM MgCl, 1 mM EGTA, 0.01% Brij-35.
(§4) Compound dilutions were prepared from 10 mM DMSO stocks by dilution into DMSO.
(§5) The kinase phosphorylation assay was initiated by the addition of the kinase and the reaction was allowed to proceed for 1 h or 2.5 h for IKKε and TBK-1 kinase respectively.

TBK1 = TBK1 (Homo sapiens (Human), UniProt Q9UHD2); experiment: Lanthascreen TR-FRET kinase inhibition assay, TBK1; type: biochemical; conditions: 20 μM ATP (apparent Km), 8 nM kinase, 2.5 h
TBK1, sequence (Q9UHD2 whole entry): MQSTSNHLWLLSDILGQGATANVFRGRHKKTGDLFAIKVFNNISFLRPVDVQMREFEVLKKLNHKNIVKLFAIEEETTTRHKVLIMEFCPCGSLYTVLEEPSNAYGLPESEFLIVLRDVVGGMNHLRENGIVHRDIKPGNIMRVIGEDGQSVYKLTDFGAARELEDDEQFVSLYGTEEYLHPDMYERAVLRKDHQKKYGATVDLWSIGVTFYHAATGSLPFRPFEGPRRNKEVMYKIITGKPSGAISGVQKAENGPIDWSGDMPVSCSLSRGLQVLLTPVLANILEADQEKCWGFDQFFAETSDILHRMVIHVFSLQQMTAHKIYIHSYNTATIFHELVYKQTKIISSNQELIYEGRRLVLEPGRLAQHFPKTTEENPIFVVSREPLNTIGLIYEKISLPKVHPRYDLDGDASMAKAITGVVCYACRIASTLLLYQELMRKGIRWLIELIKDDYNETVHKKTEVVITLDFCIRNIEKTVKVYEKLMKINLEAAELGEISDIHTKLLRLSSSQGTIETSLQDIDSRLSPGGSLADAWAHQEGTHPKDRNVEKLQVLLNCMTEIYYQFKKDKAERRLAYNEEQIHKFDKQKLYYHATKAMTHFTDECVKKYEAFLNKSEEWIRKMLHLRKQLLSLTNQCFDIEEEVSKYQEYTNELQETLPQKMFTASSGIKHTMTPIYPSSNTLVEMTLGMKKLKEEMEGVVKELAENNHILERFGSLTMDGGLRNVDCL
Procedure: as §1, §2, §3, §4, §5

IKKε, sequence (Q14164 whole entry): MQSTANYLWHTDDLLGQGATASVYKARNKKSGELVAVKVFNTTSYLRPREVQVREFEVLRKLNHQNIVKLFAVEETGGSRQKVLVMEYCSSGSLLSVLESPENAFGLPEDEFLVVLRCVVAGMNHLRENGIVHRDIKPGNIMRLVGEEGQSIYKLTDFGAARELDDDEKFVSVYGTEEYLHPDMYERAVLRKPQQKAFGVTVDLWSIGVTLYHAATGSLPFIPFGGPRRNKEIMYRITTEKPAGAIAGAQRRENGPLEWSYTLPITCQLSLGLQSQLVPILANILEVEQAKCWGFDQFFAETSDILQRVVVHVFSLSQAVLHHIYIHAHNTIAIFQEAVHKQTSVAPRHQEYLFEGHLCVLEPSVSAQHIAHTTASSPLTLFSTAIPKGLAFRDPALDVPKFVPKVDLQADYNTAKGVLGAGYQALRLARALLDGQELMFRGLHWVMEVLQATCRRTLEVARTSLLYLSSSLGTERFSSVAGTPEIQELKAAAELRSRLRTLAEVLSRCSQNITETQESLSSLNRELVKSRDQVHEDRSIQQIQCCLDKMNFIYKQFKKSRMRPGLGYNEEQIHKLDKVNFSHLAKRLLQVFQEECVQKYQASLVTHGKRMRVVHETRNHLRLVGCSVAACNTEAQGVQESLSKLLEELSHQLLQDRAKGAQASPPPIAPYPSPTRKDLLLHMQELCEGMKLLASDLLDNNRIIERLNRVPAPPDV

Row | SMILES | IC50 (IKKε) [nM] | IC50 (TBK1) [nM]
1 | COCCNc1cc(Nc2nccc(-c3cnc(N4CC[C@H](F)C4)c(C#N)c3)n2)ccn1 [DMX-72, 2-((S)-3-Fluoro-pyrrolidin-1-yl)-5-{2-[2-(2-methoxy-ethylamino)-pyridin-4-ylamino]-pyrimidin-4-yl}-nicotinonitrile] | < 30 | < 15
2 | C[C@H]1COCCN1Cc1cc(Nc2nccc(-c3cnc(N4CC[C@H](F)C4)c(C#N)c3)n2)ccn1 [DMX-78, 2-((S)-3-Fluoro-pyrrolidin-1-yl)-5-{2-[2-((S)-3-methyl-morpholin-4-ylmethyl)-pyridin-4-ylamino]-pyrimidin-4-yl}-nicotinonitrile] | < 30 | < 15
3 | N#Cc1cc(-c2ccnc(Nc3ccnc(NC(=O)CN4CCOCC4)c3)n2)cnc1N1CCC2(COC2)C1 [DMX-93, N-(4-{4-[5-Cyano-6-(2-oxa-6-aza-spiro[3.4]oct-6-yl)-pyridin-3-yl]-pyrimidin-2-ylamino}-pyridin-2-yl)-2-morpholin-4-yl-acetamide] | < 100 | < 100
4 | Cn1cc(Nc2nccc(-c3cnc(N[C@@H]4CCOC4)c(C#N)c3)n2)cn1 [DMX-116, 5-[2-(1-Methyl-1H-pyrazol-4-ylamino)-pyrimidin-4-yl]-2-[(R)-(tetrahydro-furan-3-yl)amino]-nicotinonitrile] | < 1000 | < 1000
5 | CN(CCO)Cc1ccc(Nc2nccc(-c3cnc(N4CC[C@H](F)C4)c(C#N)c3)n2)cn1 [DMX-104, 2-((S)-3-Fluoro-pyrrolidin-1-yl)-5-[2-(6-{[(2-hydroxy-ethyl)-methyl-amino]-methyl}-pyridin-3-ylamino)-pyrimidin-4-yl]-nicotinonitrile] | < 100 | < 100
6 | N#Cc1cc(-c2ccnc(Nc3cnn(CCO)c3)n2)cnc1N1CC[C@H](F)C1 [DMX-51, 2-((S)-3-Fluoro-pyrrolidin-1-yl)-5-{2-[1-(2-hydroxy-ethyl)-1H-pyrazol-4-ylamino]-pyrimidin-4-yl}-nicotinonitrile] | < 30 | < 30
7 | CN1CCN(c2ccc(Nc3nccc(-c4cnc(N5CCCC5)c(C#N)c4)n3)cn2)CC1 [DMX-3, 5-{2-[6-(4-Methyl-piperazin-1-yl)-pyridin-3-ylamino]-pyrimidin-4-yl}-2-pyrrolidin-1-yl-nicotinonitrile] | < 15 | < 15
8 | CN1CCC(Nc2ccc(Nc3nccc(-c4cnc(NCCO)c(C#N)c4)n3)cn2)CC1 [DMX-120, 2-(2-Hydroxy-ethylamino)-5-{2-[6-(1-methyl-piperidin-4-ylamino)-pyridin-3-ylamino]-pyrimidin-4-yl}-nicotinonitrile] | < 1000 | < 100
9 | C[C@@H]1CN(c2ccc(Nc3nccc(-c4cnc(N5CC[C@H](O)C5)c(C#N)c4)n3)cn2)CCN1 [DMX-26, 2-((S)-3-Hydroxy-pyrrolidin-1-yl)-5-{2-[6-((R)-3-methyl-piperazin-1-yl)-pyridin-3-ylamino]-pyrimidin-4-yl}-nicotinonitrile] | < 100 | < 30
10 | N#Cc1cc(-c2ccnc(Nc3cnn(C[C@@H](O)CO)c3)n2)cnc1N1CCCC1 [DMX-39, 5-{2-[1-((R)-2,3-Dihydroxy-propyl)-1H-pyrazol-4-ylamino]-pyrimidin-4-yl}-2-pyrrolidin-1-yl-nicotinonitrile] | < 30 | < 15
11 | CC(=O)NCC1CCCN1c1ncc(-c2ccnc(Nc3ccc(CN4CCOCC4)nc3)n2)cc1C#N (stereo not shown) [DMX-130, N-(1-{3-Cyano-5-[2-(6-morpholin-4-ylmethyl-pyridin-3-ylamino)-pyrimidin-4-yl]-pyridin-2-yl}-pyrrolidin-2-ylmethyl)-acetamide] | < 1000 | < 1000
12 | Cn1cc(Nc2nccc(-c3cnc(N4CCC[C@H]4C#N)c(C#N)c3)n2)cn1 [DMX-42, 2-((S)-2-Cyano-pyrrolidin-1-yl)-5-[2-(1 methyl-1H-pyrazol-4-ylamino)-pyrimidin-4-yl]-nicotinonitrile] | < 1000 | < 100
13 | N#Cc1cc(-c2ccnc(Nc3ccc(NC(=O)CN4CCOCC4)nc3)n2)cnc1N1CCCOCC1 [DMX-85, N-{5-[4-(5-Cyano-6-[1,4]oxazepan-4-yl-pyridin-3-yl)-pyrimidin-2-ylamino]-pyridin-2-yl}-2-morpholin-4-yl-acetamide] | < 100 | < 100
14 | N#Cc1cc(-c2ccnc(Nc3ccc(N4CCOCC4)cc3)n2)cnc1N1CC[C@H](O)C1 [DMX-49, 2-((S)-3-Hydroxy-pyrrolidin-1-yl)-5-[2-(4-morpholin-4-yl-phenylamino)-pyrimidin-4-yl]-nicotinonitrile] | < 15 | < 15
15 | Cn1cc(NC(=O)[C@H]2CCCN2c2ncc(-c3ccnc(Nc4cnn(C)c4)n3)cc2C#N)cn1 [DMX-41, (R)-1-{3-Cyano-5-[2-(1-methyl-1H-pyrazol-4-ylamino)-pyrimidin-4-yl]-pyridin-2-yl}-pyrrolidine-2-carboxylic acid (1-methyl-1H-pyrazol-4-yl)-amide] | < 1000 | < 100
16 | N#Cc1cc(-c2ccnc(Nc3cncc(CN4CCOCC4)c3)n2)cnc1N1CC[C@H](F)C1 [DMX-100, 2-((S)-3-Fluoro-pyrrolidin-1-yl)-5-[2-(5-morpholin-4-ylmethyl-pyridin-3-ylamino)-pyrimidin-4-yl]-nicotinonitrile] | < 30 | < 30
17 | N#Cc1cc(-c2ccnc(Nc3cnn(CCO)c3)n2)cnc1N1C2CCC1COC2 [DMX-46, 5-{2-[1-(2-Hydroxy-ethyl)-1H-pyrazol-4-ylamino]-pyrimidin-4-yl}-2-(3-oxa-8-aza-bicyclo[3.2.1]oct-8-yl)-nicotinonitrile] | < 1000 | < 100
18 | N#Cc1cc(-c2ccnc(Nc3ccc(CN4CCOCC4)nc3)n2)cnc1N1CCC(CCC(N)=O)C1 (stereo not shown) [DMX-162, 3-(1-{3-Cyano-5-[2-(6-morpholin-4-ylmethyl-pyridin-3-ylamino)-pyrimidin-4-yl]-pyridin-2-yl}-pyrrolidin-3-yl)-propionamide] | < 30 | < 100
19 | N#Cc1cc(-c2ccnc(Nc3ccc(NC(=O)CN4CC[C@H](F)C4)nc3)n2)cnc1N1CC[C@H](F)C1 [DMX-69, N-(5-{4-[5-Cyano-6-((S)-3-fluoro-pyrrolidin-1-yl)-pyridin-3-yl]-pyrimidin-2-ylamino}-pyridin-2-yl)-2-((S)-3-fluoro-pyrrolidin-1-yl)-acetamide] | < 30 | < 100
20 | COCCN(C)c1ccc(-c2ccnc(Nc3cnn(C)c3)n2)nc1C#N [DMX-155] | < 1000 | < 1000
21 | N#Cc1cc(-c2ccnc(Nc3ccc(NCCN4CCOCC4)nc3)n2)cnc1N1CC[C@H](F)C1 [DMX-67, 2-((S)-3-Fluoro-pyrrolidin-1-yl)-5-{2-[6-(2-morpholin-4-yl-ethylamino)-pyridin-3-ylamino]-pyrimidin-4-yl}-nicotinonitrile] | < 15 | < 30
22 | CC(=O)Nc1ccc(Nc2nccc(-c3cnc(N4CC[C@H](F)C4)c(C#N)c3)n2)cn1 [DMX-8, N-(5-{4-[5-Cyano-6-((S)-3-fluoro-pyrrolidin-1-yl)-pyridin-3-yl]-pyrimidin-2-ylamino}-pyridin-2-yl)-acetamide] | < 30 | < 30
23 | CC(C)C(Nc1ncc(-c2ccnc(Nc3ccc(CN4CCOCC4)nc3)n2)cc1C#N)C(N)=O (stereo not shown) [DMX-136, 2-{3-Cyano-5-[2-(6-morpholin-4-ylmethyl-pyridin-3-ylamino)-pyrimidin-4-yl]-pyridin-2-ylamino}-3-methyl-butyramide] | < 15 | < 15
24 | N#Cc1cc(-c2ccnc(Nc3ccc(NC(=O)CN4CCCC4)nc3)n2)cnc1N1CC[C@H](F)C1 [DMX-66, N-(5-{4-[5-Cyano-6-((S)-3-fluoro-pyrrolidin-1-yl)-pyridin-3-yl]-pyrimidin-2-ylamino}-pyridin-2-yl)-2-pyrrolidin-1-yl-acetamide] | < 100 | < 30
25 | CC(c1ccc(Nc2nccc(-c3cnc(N4CC[C@H](F)C4)c(C#N)c3)n2)cn1)N1CCOCC1 (stereo partly drawn) [DMX-96, 2-((S)-3-Fluoro-pyrrolidin-1-yl)-5-{2-[6-(1-morpholin-4-yl-ethyl)-pyridin-3-ylamino]-pyrimidin-4-yl}-nicotinonitrile] | < 30 | < 15
26 | CN1Cc2ccc(Nc3nccc(-c4cnc(N5CC[C@H](F)C5)c(C#N)c4)n3)cc2C1 [DMX-76, 2-((S)-3-Fluoro-pyrrolidin-1-yl)-5-[2-(2-methyl-2,3-dihydro-1H-isoindol-5-ylamino)-pyrimidin-4-yl]-nicotinonitrile] | < 15 | < 15
27 | COCCNc1cc(Nc2ncc(F)c(-c3cnc(N4CCCOCC4)c(C#N)c3)n2)ccn1 [DMX-95, 5-{5-Fluoro-2-[2-(2-methoxy-ethylamino)-pyridin-4-ylamino]-pyrimidin-4-yl}-2-[1,4]oxazepan-4-yl-nicotinonitrile] | < 1000 | < 100
28 | CC(C(=O)Nc1ccc(Nc2nccc(-c3cnc(N4CC[C@H](F)C4)c(C#N)c3)n2)cn1)N(C)C (stereo partly drawn) [DMX-18, N-(5-{4-[5-Cyano-6-((S)-3-fluoro-pyrrolidin-1-yl)-pyridin-3-yl]-pyrimidin-2-ylamino}-pyridin-2-yl)-2-dimethylamino-propionamide] | < 100 | < 100
29 | N#Cc1cc(-c2ccnc(Nc3ccc(CN4CCOCC4)nc3)n2)cnc1N1CCC2(COC2)C1 [DMX-92, 5-[2-(6-Morpholin-4-ylmethyl-pyridin-3-ylamino)-pyrimidin-4-yl]-2-(2-oxa-6-aza-spiro[3.4]oct-6-yl)-nicotinonitrile] | < 30 | < 100
